Read-outs that look alike come from different tables or passages of the source.
Legend:
[1] = target: T1, recombinant human CB1 receptor (Homo sapiens, UniProt P21554); assay: Cannabinoid Receptor-1 (CB1) Binding Assay ([3H]CP-55940 displacement)
T1 construct: expressed in transfected cells
Description: Binding affinity determination is based on recombinant human CB1 receptor expressed in Chinese Hamster Ovary (CHO) cells (Felder et al, Mol. Pharmacol. 48: 443-450, 1995). Total assay volume is 250 μl (240 μl CB1 receptor membrane solution plus 5 μl test compound solution plus 5 μl [3H]CP-55940 solution). Final concentration of [3H]CP-55940 is 0.6 nM. Binding buffer contains 50 mM Tris-HCl, pH 7.4, 2.5 mM EDTA, 5 mM MgCl2, 0.5 mg/mL fatty acid free bovine serum albumin and protease inhibitors (Cat#P8340, from Sigma). To initiate the binding reaction, 5 μl of radioligand solution is added, the mixture is incubated with gentle shaking on a shaker for 1.5 h at 30° C. The binding is terminated by using 96-well harvester and filtering through GF/C filter presoaked in 0.05% polyethylenimine. The bound radiolabel is quantitated using scintillation counter. Apparent binding affinities for various compounds are calculated from IC50 values (DeBlasi et al., Trends Pharmacol Sci 10: 227-229, 1989).

[2] = target: T1, recombinant human CB1 receptor; assay: Cannabinoid Receptor-1 (CB1) Functional Activity Assay (intracellular cAMP in CB1-CHO cells); assay type: cell-based; settings: for functional mode at CB1 receptor: CB1 functional activity assay, cAMP
Description: The functional activation of CB1 receptor is based on recombinant human CB1 receptor expressed in CHO cells (Felder et al, Mol. Pharmacol. 48: 443-450, 1995). To determine the agonist activity or inverse agonist activity of any test compound, 50 ul of CB1-CHO cell suspension are mixed with test compound and 70 ul assay buffer containing 0.34 mM 3-isobutyl-1-methylxanthine and 5.1 uM of forskolin in 96-well plates. The assay buffer is comprised of Earle's Balanced Salt Solution supplemented with 5 mM MgCl2 1 mM glutamine, 10 mM HEPES, and 1 mg/mL bovine serum albumin. The mixture is incubated at room temperature for 30 minutes, and terminated by adding 30 ul/well of 0.5M HCl. The total intracellular cAMP level is quantitated using the New England Nuclear Flashplate and cAMP radioimmunoassay kit.
To determine the antagonist activity of test compound, the reaction mixture also contains 0.5 nM of the agonist CP55940 (or 50 nM of methanandamide), and the reversal of the CP55940 (or methanandamide) effect is quantitated with increasing concentration of the test compound. Intracellular cAMP is determined as described above. An IC50 value for the test compound is calculated from the titration curve.

[3] = test system: human GABA α1β3β2 receptors; assay: GABAa, 3H-muscimol binding assay; settings: activity at 10 μM as percentage of activity of control compound P18 at 10 μM (increase of 3H-muscimol binding)
Description: Membranes from recombinant Ltk cells expressing human GABA α1β3β2 receptors were suspended in an ice-cold solution of 100 mM KCl, 10 mM KH2PO4, adjusted to pH=7.4 with 1 M KOH. Tritiated muscimol (PerkinElmer, Wellesley, Mass.) at a concentration of 2 nM, and serial five-fold dilutions of test compounds at 10 μM, 2.0 μM, 400 nM, 80 nM, 16 nM, 3.2 nM, 0.64 nM and 0.13 nM were mixed in 96-well plates containing 200 μL of membrane suspension. Cold muscimol and compound P18 were used as negative and positive controls respectively. The assay mixture was incubated at 4° C. for 2 hours, then harvested on GF/C filter plates and washed with ice-cold 50 mM Tris-Ci buffer. The filter plates were dried and counted in a Wallac MicroBeta® Trilux detector (Model 1450-030; PerkinElmer, Wellesley, Mass.), and the data were downloaded and analyzed using Prism 3.0. The activity of compound P18 at 10 μM was used as reference for the test compounds, and it was expressed as increasing ^3H-muscimol binding by 100%, whereas cold muscimol at 2 μM antagonized ^3H-muscimol binding by 100%. The tested compound's activity at 10 μM was expressed as a percentage of compound P18's activity at 10 μM.
As a reference, the parent compound (the compound not substituted with a R^4 heteroaryl, such as pyrazole or 1,2,4-oxadiazole, as indicated below) is also shown with its Gamma Amino Butyric Acid (GABA) Receptor activity. […] As a result, the compounds of the present invention in which R^4 is a heteroaryl, such as pyrazole or 1,2,4-oxadiazole, have the unexpected benefits of minimizing off target activity at the GABA receptor.
Note: % GABA is defined as the GABA activity of the indicated compound expressed as a percentage of the activity of control compound P18. NA=data not available.

[4] = recombinant human CB1 receptor expressed in CHO cells, 0.6 nM [3H]CP-55940, read-out: CB1 binding IC50
[5] = CB1-CHO cells, forskolin-stimulated cAMP, read-out: EC50 in the CB1 functional activity assay

T1 sequence (P21554 whole entry): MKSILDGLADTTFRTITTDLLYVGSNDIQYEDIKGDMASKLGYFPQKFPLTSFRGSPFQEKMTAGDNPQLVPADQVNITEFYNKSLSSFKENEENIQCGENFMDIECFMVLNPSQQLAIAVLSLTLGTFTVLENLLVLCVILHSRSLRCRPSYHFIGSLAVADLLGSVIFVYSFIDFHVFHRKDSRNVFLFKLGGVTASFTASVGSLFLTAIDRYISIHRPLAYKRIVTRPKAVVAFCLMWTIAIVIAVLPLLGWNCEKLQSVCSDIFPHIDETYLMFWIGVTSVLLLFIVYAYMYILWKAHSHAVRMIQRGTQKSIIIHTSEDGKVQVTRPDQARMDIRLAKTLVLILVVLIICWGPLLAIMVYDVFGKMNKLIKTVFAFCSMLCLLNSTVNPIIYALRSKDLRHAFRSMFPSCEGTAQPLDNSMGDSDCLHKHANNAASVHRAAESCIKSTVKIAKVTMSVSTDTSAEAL

IC50 [1, 4] [nM]	EC50 [2, 5] [nM]	functional mode at CB1 receptor [2]	% GABA Example [3] [%]	SMILES	IC50 [1] [nM]	EC50 [2] [nM]
1	< 20	functional inverse agonists	9	Cc1n[nH]cc1-c1ccc(-c2nc3oc(C(=O)C(C)(C)C)c(C(N)=O)c3cc2-c2ccc(Cl)cc2)c(Cl)c1 [Example 3, 6-[2-chloro-4-(3-methyl-1H-pyrazol-4-yl)phenyl]-5-(4-chlorophenyl)-2-(2,2-dimethylpropanoyl)furo[2,3-b]pyridine-3-carboxamide]	–	–
1	< 20	functional inverse agonists	17	CC(C)(C)C(=O)c1oc2nc(-c3ccc(-c4cn[nH]c4)cc3Cl)c(-c3ccc(Cl)cc3)cc2c1N [Example 7, 1-{3-Amino-5-(4-chlorophenyl)-6-[2-chloro-4-(1H-pyrazol-4-yl)phenyl]furo[2,3-b]pyridin-2-yl}-2,2-dimethylpropan-1-one]	–	–
1	< 20	functional inverse agonists	7	Cc1c(S(=O)(=O)C(C)(C)C)oc2nc(-c3ccc(-c4cn[nH]c4)cc3Cl)c(-c3ccc(Cl)cc3)cc12 [Example 11, 2-(Tert-butylsulfonyl)-5-(4-chlorophenyl)-6-[2-chloro-4-(1H-pyrazol-4-yl)phenyl]-3-methylfuro[2,3-b]pyridine]	–	–
1	< 20	functional inverse agonists	14	Cc1n[nH]cc1-c1ccc(-c2nc3oc(C(=O)C(C)(C)C)c(CO)c3cc2-c2ccc(Cl)cc2)c(Cl)c1 [Example 37, 1-[6-[2-Chloro-4-(3-methyl-1H-pyrazol-4-yl)phenyl]-5-(4-chlorophenyl)-3-(hydroxymethyl)furo[2,3-b]pyridin-2-yl]-2,2-dimethylpropan-1-one]	–	–
3	< 20	functional inverse agonists	39	CC(=O)c1c(C(=O)C(C)C)oc2nc(-c3ccc(-c4c[nH]nc4C)cc3Cl)c(-c3ccc(Cl)cc3)cc12 [Example 38, 1-[3-Acetyl-6-[2-chloro-4-(3-methyl-1H-pyrazol-4-yl)phenyl]-5-(4-chlorophenyl)furo[2,3-b]pyridin-2-yl]-2-methylpropan-1-one]	–	–
5	< 20	functional inverse agonists	35	CC(=O)Nc1c(C(=O)C(C)(C)O)oc2nc(-c3ccc(-c4c[nH]nc4C)cc3Cl)c(-c3ccc(Cl)cc3)cc12 [Example 41, N-[6-[2-Chloro-4-(3-methyl-1H-pyrazol-4-yl)phenyl]-5-(4-chlorophenyl)-2-(2-hydroxy-2-methylpropanoyl)furo[2,3-b]pyridin-3-yl]acetamide]	–	–
0.4	< 20	functional inverse agonists	41	CC(C)(C)C(=O)c1oc2nc(-c3ccc(-c4ncon4)cc3Cl)c(-c3ccc(Cl)cc3)cc2c1NC(=O)CO [Example 43, N-[6-[2-Chloro-4-(1,2,4-oxadiazol-3-yl)phenyl]-5-(4-chlorophenyl)-2-(2,2-dimethylpropanoyl)furo[2,3-b]pyridin-3-yl]-2-hydroxyacetamide]	–	–

SMILES	IC50 [1, 4] [nM]	EC50 [2, 5] [nM]	functional mode at CB1 receptor [2]	% GABA Example [3] [%]	IC50 [1] [nM]	EC50 [2] [nM]
CC(=O)c1c(C(=O)C(C)(C)C)oc2nc(-c3ccc(-c4c[nH]nc4C)cc3Cl)c(-c3ccc(Cl)cc3)cc12 [Example 40, 1-[3-Acetyl-6-[2-chloro-4-(3-methyl-1H-pyrazol-4-yl)phenyl]-5-(4-chlorophenyl)furo[2,3-b]pyridin-2-yl]-2,2-dimethylpropan-1-one]	–	–	functional inverse agonists	12	1	< 20

Source: patent publication US20080269279A1, “Substituted furo[2,3-B] pyridine derivatives as cannabinoid-1 receptor modulators” (priority 2007, published 2008)
